# From article PMC7961380, “A Systematic Study of the In Vitro Pharmacokinetics and Estimated Human In Vivo Clearance of Indole and Indazole-3-Carboxamide Synthetic Cannabinoid Receptor Agonists Detected on the Illicit Drug Market” (Molecules, 2021)
# Several values for one entry are separate records, joined by “and”; a condition that tells them apart may be missing. Identical values can stand only once. Like-named read-outs stand apart in the source and are kept apart here.
# What was measured:
# [1] = system: pooled human cryopreserved hepatocytes (pHHeps); experiment: Metabolic stability, pooled human cryopreserved hepatocyte incubations; conditions: for Predicted In Vivo Hepatic Clearance, CLH: from pHHeps CLint, well-stirred model with plasma fu, Q 21 mL min^−1 kg^−1
# [2] = as above; conditions: human, hepatocytes; for CLint scaled at 0.5 µM: Intrinsic clearance, pHHeps, alternative hepatocyte cell density 99x10^6 hepatocytes per gram liver; for half-life at 0.5 µM: T1/2 (min), pHHeps 0.25 million cells mL^−1, 0.5 µM, 37 °C, n ≥ 3 ± SD
# [3] = Metabolic stability, pooled human liver microsome incubations; conditions: for Predicted In Vivo Hepatic Clearance, CLH: from pHLM CLint, well-stirred model with plasma fu, Q 21 mL min^−1 kg^−1; for CLint scaled at 0.5 µM / half-life at 0.5 µM: human, microsomes; for CLint scaled at 0.5 µM: pH 7.4, Intrinsic clearance; for half-life at 0.5 µM: pH 7.4, T1/2 (min), pHLM 0.5 mg mL^−1, 0.5 µM, NADPH, 37 °C; for half-life at 0.5 µM / Microsomal Intrinsic Clearance, CLint micr: n ≥ 3 ± SD
# [4] = Plasma protein binding by equilibrium dialysis; type: in vitro ADME, human; conditions: human, pooled human plasma, pH 7.4, equilibrium dialysis 5 h, 37 °C
# [5] = Short-term plasma stability with and without esterase inhibitors; conditions: human, pH 7.4, Parent Compound Remaining (%), 3 h, 37 °C
# [6] = pHHeps, 99x10^6 hepatocytes per gram liver
# [7] = pHLM, alternative microsomal scaling factor 32 mg microsomal protein per gram liver
# [8] = pHLM, alternative microsomal scaling factor 45 mg microsomal protein per gram liver
# [9] = pHLM, scaling factor 32 mg microsomal protein per gram liver
# [10] = pHLM, scaling factor 45 mg microsomal protein per gram liver
# [11] = 10 µg mL^−1, read-out: PPB (%) (converted)
# [12] = plasma, read-out: Fraction Unbound (fu)
# [13] = Esterase Inhibitors, pH 7.4, BNPP and PMSF 500 µM each
# [14] = plasma, No Esterase Inhibitors, pH 7.4, pooled human plasma
Structure (SMILES),"Predicted In Vivo Hepatic Clearance, CLH [1]","Hepatic extraction ratio, EH ([1]; from pHHeps incubations)","Hepatic extraction ratio, EH [1, 6]","Predicted in vivo hepatic clearance, CLH [1, 6]","% parent compound remaining, Average ([1]; pHHeps, 3 min)","% parent compound remaining, Average ([1]; pHHeps, 6 min)","% parent compound remaining, Average ([1]; pHHeps, 9 min)","% parent compound remaining, Average ([1]; pHHeps, 15 min)","% parent compound remaining, Average ([1]; pHHeps, 30 min)","% parent compound remaining, Average ([1]; pHHeps, 45 min)","% parent compound remaining, Average ([1]; pHHeps, 60 min)",CLint scaled at 0.5 µM [2],half-life at 0.5 µM [2],"Predicted In Vivo Hepatic Clearance, CLH [3]","Hepatic extraction ratio, EH ([3]; from pHLM incubations)","CLint scaled at 0.5 µM [3, 7]","CLint scaled at 0.5 µM [3, 8]",half-life at 0.5 µM [3],"% parent compound remaining, Average ([3]; pHLM, 3 min)","% parent compound remaining, Average ([3]; pHLM, 6 min)",also measured
"COC(=O)[C@@H](NC(=O)c1nn(CCCCCF)c2ccccc12)C(C)C [(S)-5F-AMB-PINACA (10), methyl [1-(5-fluoropentyl)-1H-indazole-3-carbonyl]valinate]",18.25 mL/min/kg and 18.25 ± 0.12 mL/min/kg,0.87 and 0.87 ± 0.006,0.86 ± 0.006,18.06 ± 0.13 mL/min/kg,60.1%,23.2%,11.4%,3.0%,0.3%,0.1%,0.2%,2220 ± 115 mL/min/kg,3.2 ± 0.16 min,17.79 mL/min/kg and 17.79 ± 0.20 mL/min/kg,0.85 and 0.85 ± 0.010,1230 mL/min/kg,1730 ± 133 mL/min/kg,0.9 ± 0.07 min,10.6%,1.8%,"% parent compound remaining, Average ([3]; pHLM, 9 min): 0.0%; % parent compound remaining, Average ([3]; pHLM, 15 min): 0.0%; % parent compound remaining, Average ([3]; pHLM, 30 min): 0.0%; Microsomal Intrinsic Clearance, CLint micr ([3]; pHLM): 1.494 ± 0.115 mL min^−1 mg Microsomal Protein^−1; Hepatic extraction ratio, EH [3, 9]: 0.77 ± 0.013; Predicted in vivo hepatic clearance, CLH [3, 9]: 16.21 mL/min/kg; Hepatic extraction ratio, EH [3, 10]: 0.83 ± 0.011; Predicted in vivo hepatic clearance, CLH [3, 10]: 17.35 ± 0.22 mL/min/kg; fraction unbound at 5 h, 10 µg mL^−1 [4, 11]: 0.058; fraction unbound at 5 h, 10 µg mL^−1 [4, 12]: 0.058 ± 0.0008; remaining at 3 h, 5 µM [5, 13]: 89.8 ± 1.5%; remaining at 3 h, 5 µM [5, 14]: 93 ± 6.1%"
"COC(=O)[C@@H](NC(=O)c1cn(CCCCCF)c2ccccc12)C(C)(C)C [(S)-5F-MDMB-PICA (3), methyl 2-[1-(5-fluoropentyl)-1H-indole-3-carboxamido]-3,3-dimethylbutanoate]",7.87 ± 0.58 mL/min/kg,0.37 ± 0.027,0.36 ± 0.027,7.49 ± 0.56 mL/min/kg,96.7%,91.2%,90.7%,77.0%,57.6%,42.5%,30.9%,188 mL/min/kg,38 ± 4.6 min,8.01 ± 0.84 mL/min/kg,0.38 ± 0.04,128 mL/min/kg,181 ± 31.6 mL/min/kg,9 ± 1.4 min,63.9%,56.3%,"% parent compound remaining, Average ([3]; pHLM, 9 min): 49.2%; % parent compound remaining, Average ([3]; pHLM, 15 min): 32.1%; % parent compound remaining, Average ([3]; pHLM, 30 min): 12.8%; Microsomal Intrinsic Clearance, CLint micr ([3]; pHLM): 0.156 ± 0.027 mL min^−1 mg Microsomal Protein^−1; Hepatic extraction ratio, EH [3, 9]: 0.27 ± 0.034; Predicted in vivo hepatic clearance, CLH [3, 9]: 5.75 mL/min/kg; Hepatic extraction ratio, EH [3, 10]: 0.35 ± 0.038; Predicted in vivo hepatic clearance, CLH [3, 10]: 7.27 ± 0.81 mL/min/kg; fraction unbound at 5 h, 10 µg mL^−1 [4, 11]: 0.062; fraction unbound at 5 h, 10 µg mL^−1 [4, 12]: 0.062 ± 0.0007; remaining at 3 h, 5 µM [5, 13]: 99.5 ± 5.8%; remaining at 3 h, 5 µM [5, 14]: 97.3 ± 6.4%"
